# Read-outs that look alike come from different tables or passages of the source.
# Assays:
# [1] = tested on: primary cultures of cortex
# cortical cells = conditions: 100 uM tolbutamide
# [2] = tested on: primary cortical cultures; conditions: 5% Triton; 20 minutes incubation
# F425G Shaker mutation = F425G Shaker mutation (Drosophila melanogaster, UniProt P08510, F425G); conditions: cited from earlier work
# Chain of F425G Shaker mutation (P08510 whole entry F425G): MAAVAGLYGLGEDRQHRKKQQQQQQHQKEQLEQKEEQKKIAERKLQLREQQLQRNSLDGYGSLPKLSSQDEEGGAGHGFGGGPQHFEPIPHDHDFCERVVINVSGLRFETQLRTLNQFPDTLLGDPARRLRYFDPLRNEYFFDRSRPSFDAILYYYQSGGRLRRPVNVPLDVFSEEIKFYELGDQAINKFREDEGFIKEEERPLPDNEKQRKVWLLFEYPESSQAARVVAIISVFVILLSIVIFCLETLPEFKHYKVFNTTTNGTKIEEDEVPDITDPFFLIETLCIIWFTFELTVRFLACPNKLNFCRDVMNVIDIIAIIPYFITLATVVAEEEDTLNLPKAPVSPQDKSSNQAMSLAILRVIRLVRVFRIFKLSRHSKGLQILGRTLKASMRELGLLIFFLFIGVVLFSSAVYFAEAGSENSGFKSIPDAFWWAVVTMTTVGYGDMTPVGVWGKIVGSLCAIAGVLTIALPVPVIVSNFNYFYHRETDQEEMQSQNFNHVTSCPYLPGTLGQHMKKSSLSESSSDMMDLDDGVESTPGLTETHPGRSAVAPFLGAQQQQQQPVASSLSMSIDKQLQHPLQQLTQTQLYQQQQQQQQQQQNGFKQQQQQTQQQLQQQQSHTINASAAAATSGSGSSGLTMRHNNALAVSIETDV
compound,measurement,setting,value
"Nc1ccncc1 [4-AP, 4-aminopyridine]",effect of K+ channel antagonist on κ-PVIIA-induced hyperpolarization,"[1]; cortical preparations, 100 nM κ-PVIIA",without any detectable effect
COc1ccc(Cl)cc1C(=O)NCCc1ccc(S(=O)(=O)NC(=O)NC2CCCCC2)cc1 [Glibenclamide],effect of Glibenclamide on κ-PVIIA-induced hyperpolarization,"[1]; cortical preparations, Glibenclamide 10 nM, 100 nM κ-PVIIA",significant reductions
"CCCCNC(=O)NS(=O)(=O)c1ccc(C)cc1 [Tolbutamide, reference compound]",effect of tolbutamide on κ-PVIIA protection against glutamate cytotoxicity,cortical cells,blocked
"Iberiotoxin (QFTDVDCSVSKECWSVCKDLFGVDRGKCMGKKCRCYQ; UniProt P24663 1-37, looked up) [IBTX]",effect of K+ channel antagonist on κ-PVIIA-induced hyperpolarization,[1],without any detectable effect
Triton [reference compound],"increase in fluorescence, Enzchek protease-sensitive dye",[2],~14%
charybdotoxin [reference compound],increase of charybdotoxin affinity by F425G Shaker mutation,F425G Shaker mutation,three orders of magnitude

# — US20060257843A1 (priority 2002, published 2006)
